Reference: patent US7294643B2, “UK-1 analogues: methods of preparation and use” (Board of Regents, The University of Texas System, priority 2002, dated 2007)

How the values were obtained:
[1] = Metal ion binding by continuous variation, Fe3+; details: Fe^3+, methanol, 1:1 complex
Experimental: Previous work indicated the metal ion binding mechanism of UK-1, so the method of continuous variation was used to determine the ability of selected UK-1analogues to bind a variety of metal ions. Methanolic solutions of UK-1 or UK-1 analogues and metal ion salts [Ca(NO3)2, Mg(NO3)2, Zn(NO3)2, or Fe(NO3)3] at various molar ratios, and 20 μM combined total concentration, were prepared and the absorbance at 418 nm was determined. […] Compound 2.1 does bind with Ca^2+ and Zn^2+ better than UK-1.
Continuous variation plots. A 100 μM solution of UK-1 or analogue and 100 AM solutions of Ca(NO3)2, Mg(NO3)2, Zn(NO3)2, or Fe(NO3)3 were prepared in methanol. From these stock solutions, 15 samples (1 mL) of varying mole fraction of the metal ion were prepared at a constant, combined concentration of 20 μM for the ligand and the metal ion. The change in absorbance was monitored from 500 to 200 nm for each sample using as a reference a 1 mL solution containing the same concentration of ligand as the sample being measured but without the metal ion. The maximum absorbance change was typically around 418 nm but varied somewhat for each metal ion. The absorbance at 418 nm was plotted as a function of the mole fraction of the metal ion and the maximum absorbance change was determined. The absorbance of a sample containing the metal ion concentration corresponding to this maximum change and a 15 fold excess of metal ion at this ligand concentration, subtracted from a reference containing the same concentration of ligand but no metal ion was used to normalize the curve and obtain the conditional formation constant as described in the paper to Likussar, W.; Boltz, D. F. Anal. Chem. 1971, 43, 1265-1272, which is incorporated herein by reference.

BT-20 = assay: alamarBlue cytotoxicity assay, BT-20; type: cell-based; details: Homo sapiens; BT-20, alamarBlue
Experimental: (§1) Cytotoxicity Assays. Cell culture cytotoxicity assays were performed using the. alamarBlue method, as described by Ahmed et al., J. Immun. Methods 1994, 170, 211-224, which is incorporated herein by reference. Briefly, aliquots of 100 μL of cell suspension (1.0-2.5×10^3 cells) was placed in 96-well microtiter plates in an atmosphere of 5% CO2 at 37° C. After 24 hours, 100 μL of culture medium and 2 μL of compound in vehicle (culture media with 40% pyridine) or vehicle alone were added, and the plates incubated an additional 72 hours. The final pyridine concentration in all cases was 0.4%; at this pyridine concentration there was no affect on the growth of cells compared to cells in culture media without added pyridine. […] After the culture media had been removed from each well, 200 μL of fresh media and 20 μL of 90% alamarBlue reagent were added, followed by an additional 6 h incubation. The fluorescent intensity was measured using a Spectrafluor Plus plate reader with excitation at 530 nm and emission at 590 nm. Results are reported as IC50 values, the average concentration required to produce a decrease of fluorescent intensity of 50% relative to vehicle-treated controls in two separate determinations.

yeast, or fungi = details: yeast, or fungi, concentrations as large as 250 μM; cited from earlier work
[2] = tested on: gram-positive or gram negative bacteria; details: gram-positive or gram negative bacteria, concentrations as large as 250 μM; cited from earlier work
[3] = tested on: methicillin-resistant S. aureus ATCC 43300; assay: Antimicrobial bioassay, methicillin-resistant S. aureus; type: cell-based, Staphylococcus aureus
Experimental: Antimicrobial Bioassay: Staphylococcus aureus ATCC 29213 and methicillin-resistant S. aureus ATCC 43300 (MRS) were obtained from the American Type Culture Collection (Rockville, Md.) and stored on agar slants at 4° C. until needed. Susceptibility testing was performed using a modified version of the NCCLS methods: “Methods for Dilution Antimicrobial Susceptibility Tests for Bacteria that Grow Aerobically,” M7-A4, Vol. 17, No. 2, NCCLS, (1997) and “Reference Method for Broth Dilution Antifungal Susceptibility Testing of Yeasts; Approved Standard,” M27-A, Vol. 17, No. 9, NCCLS, (1997), both of which are incorporated herein by reference. Microorganisms were subcultured prior to the assay by suspending cells from the slant in Eugon broth (BBL, Maryland) and incubating for 24 hours at 37° C. Inocula were prepared by diluting the subcultured organism in its incubation broth after comparison to the 0.5 McFarland Standard (a BaSO4 suspension) to afford final inocula ranges of S. aureus: 1.0-5.0×10^5 and MRS: 0.2-6.0×10^5 CFU/ml. Test compounds were dissolved in DMSO, serially-diluted using normal saline, and transferred in duplicate to 96 well flat-bottomed microtiter plates. The microbial inocula were added to the samples to achieve a final volume of 200 μl and final compound concentrations starting with 50 μg/ml. Drug [Ciprofloxacin (ICN Biomedicals, Ohio)] as well as growth and blank (media only) controls were added to each test plate. Plates were read at 630 nm using the EL-340 Biokinetics Reader (Bio-Tek Instruments, Vermont) prior to and after incubation at 37° C. for 24 hours. Percent growth was calculated and plotted versus concentration to afford the IC50, or sample concentration that affords 50% growth of the organism relative to controls.

SK-N-AS = assay: alamarBlue cytotoxicity assay, SK-N-AS; type: cell-based; details: Homo sapiens
Experimental: as §1

## COC(=O)c1cccc2oc(-c3cccc4oc(-c5ccccc5O)nc34)nc12 [UK-1]
[1]
  Association constant for metal ion binding: 250000 M⁻¹
BT-20
  IC50: 0.17 µM
yeast, or fungi
  growth inhibition: does not inhibit the growth
[2]
  growth inhibition: does not inhibit the growth
[3]; Staphylococcus aureus, ATCC43300, Methacilline-resistant Staph. Aureus, growth inhibited by 50%, read-out: Staph. aureus IC50
  IC50: > 50 µg/mL
[3]; methicillin-resistant S. aureus, concentrations up to 50 μg/mL
  antibacterial effect: no indication of any antibacterial effect
SK-N-AS
  IC50: 24 µM
